The target in this experiment is human galectin 3 (Homo sapiens, UniProt P17931). Kind of experiment: SPR analysis of binding of glycan ligands to immobilized human Gal-3. The conditions noted are these: for Relative affinity: calculated relative to the free lactose.

Where only a bound is given, the exact number is not on record here.

Chain of human galectin 3 (P17931 whole entry): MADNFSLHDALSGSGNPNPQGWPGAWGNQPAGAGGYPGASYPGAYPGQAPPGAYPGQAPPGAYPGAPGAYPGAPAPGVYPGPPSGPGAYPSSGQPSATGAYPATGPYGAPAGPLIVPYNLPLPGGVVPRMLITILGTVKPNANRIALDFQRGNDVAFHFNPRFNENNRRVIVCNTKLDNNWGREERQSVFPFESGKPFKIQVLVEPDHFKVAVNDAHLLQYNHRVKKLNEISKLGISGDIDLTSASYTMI

In the case of `CC(=O)N[C@H]1[C@@H](OCCOCCOCCN=[N+]=[N-])O[C@H](CO)[C@H](O)[C@@H]1O[C@@H]1O[C@H](CO)[C@H](O)[C@H](O)[C@H]1O` [mono TFD (2), 2-(2-(2-Azido)ethoxy)ethyl-2-actamido-2-desoxy-3-O-[-β-D-galactopyranosyl]-α-D-galactopyranoside], the Relative affinity is recorded as under 1.47.
As to β-Cyclodextrin-GalNAc [CD-Tn (16)], the Relative affinity is on record as 1070. Besides, where the note is “SPR, Gal-3 immobilized on CM5 chip, ligand as analyte, 25 °C”, the EC50 (as a rule, the concentration needed to bring the measured effect to its halfway point) was found to be 1370 ± 390 nM. Also, the “enhanced relative affinity (per glycan ligand) in comparison with free lactose” value (SPR, per glycan ligand) is reported as 153 fold. Further, the “Relative affinity per unit” value (calculated for each sugar unit on cyclodextrin, relative to free lactose) is recorded as 153.
`[N-]=[N+]=NCCOCCOCCO[C@@H]1O[C@H](CO)[C@@H](O[C@@H]2O[C@H](CO)[C@H](O)[C@H](O)[C@H]2O)[C@H](O)[C@H]1O` [mono Lac (3)]: the Relative affinity is listed as under 1.47.
The same measure, in the same setting: under `CC(=O)N[C@H]1[C@@H](OCCOCCOCCN=[N+]=[N-])O[C@H](CO)[C@H](O)[C@@H]1O` [mono Tn (1), 2-(2-(2-Azido)ethoxy)ethyl-2-actamido-2-desoxy-α-D-gal-actopyranoside] stands under 1.47.

Source of the values: publication PMC10349921 (Bioorganic & medicinal chemistry, 2022).
